Measured values: PMC7901699, “Challenging inflammatory process at molecular, cellular and in vivo levels via some new pyrazolyl thiazolones” (Journal of Enzyme Inhibition and Medicinal Chemistry, 2021)
Entries after “also recorded” stand apart in the source; their conditions may differ.

Columns and labels:
15-LOX = biological target: T1, 15-LOX (Glycine max, UniProt P08170); assay: In vitro 15-LOX inhibition assay (lipoxygenase inhibitor screening kit, Cayman); type: biochemical; settings: for IC50: mean of three determinations
T1 construct: purchased Cayman chemicals 760700
T1 sequence (P08170 1-839): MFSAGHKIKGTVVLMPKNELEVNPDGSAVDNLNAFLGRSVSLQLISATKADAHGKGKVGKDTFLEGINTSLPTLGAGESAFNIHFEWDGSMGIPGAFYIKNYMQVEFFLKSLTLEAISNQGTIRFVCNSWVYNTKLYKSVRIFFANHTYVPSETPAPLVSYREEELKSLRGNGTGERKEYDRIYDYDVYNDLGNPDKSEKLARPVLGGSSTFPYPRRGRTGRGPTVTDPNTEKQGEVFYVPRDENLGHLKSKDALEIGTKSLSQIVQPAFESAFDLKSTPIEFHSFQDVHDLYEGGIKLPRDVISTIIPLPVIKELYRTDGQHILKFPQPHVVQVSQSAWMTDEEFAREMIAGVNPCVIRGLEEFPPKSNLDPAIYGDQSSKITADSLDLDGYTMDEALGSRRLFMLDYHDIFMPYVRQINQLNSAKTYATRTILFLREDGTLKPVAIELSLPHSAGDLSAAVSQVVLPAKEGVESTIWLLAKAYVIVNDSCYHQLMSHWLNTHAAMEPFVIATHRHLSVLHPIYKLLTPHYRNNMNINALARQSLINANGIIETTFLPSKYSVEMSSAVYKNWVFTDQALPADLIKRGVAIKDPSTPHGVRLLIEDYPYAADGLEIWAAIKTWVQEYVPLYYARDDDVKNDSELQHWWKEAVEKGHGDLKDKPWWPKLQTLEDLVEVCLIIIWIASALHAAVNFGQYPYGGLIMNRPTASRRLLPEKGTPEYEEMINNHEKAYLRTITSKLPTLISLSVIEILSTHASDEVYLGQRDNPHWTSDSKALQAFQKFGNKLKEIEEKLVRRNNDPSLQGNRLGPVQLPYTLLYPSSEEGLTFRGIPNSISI
Procedure: (§1) Both assays were carried out in compliance with the manufacturer’s instructions and in accordance to prior studies[29]^,[33].
(§2) IC50 values (μM) and selectivity indices (SI) were calculated.

ovine COX-1 = biological target: T2, ovine COX-1 (Ovis aries, UniProt P05979); assay: In vitro COX-1 inhibition assay (colorimetric COX inhibitor screening kit, Cayman); type: biochemical; settings: mean of three determinations
T2 construct: purchased Cayman Chemicals Inc. 560131
T2 sequence (P05979 25-600): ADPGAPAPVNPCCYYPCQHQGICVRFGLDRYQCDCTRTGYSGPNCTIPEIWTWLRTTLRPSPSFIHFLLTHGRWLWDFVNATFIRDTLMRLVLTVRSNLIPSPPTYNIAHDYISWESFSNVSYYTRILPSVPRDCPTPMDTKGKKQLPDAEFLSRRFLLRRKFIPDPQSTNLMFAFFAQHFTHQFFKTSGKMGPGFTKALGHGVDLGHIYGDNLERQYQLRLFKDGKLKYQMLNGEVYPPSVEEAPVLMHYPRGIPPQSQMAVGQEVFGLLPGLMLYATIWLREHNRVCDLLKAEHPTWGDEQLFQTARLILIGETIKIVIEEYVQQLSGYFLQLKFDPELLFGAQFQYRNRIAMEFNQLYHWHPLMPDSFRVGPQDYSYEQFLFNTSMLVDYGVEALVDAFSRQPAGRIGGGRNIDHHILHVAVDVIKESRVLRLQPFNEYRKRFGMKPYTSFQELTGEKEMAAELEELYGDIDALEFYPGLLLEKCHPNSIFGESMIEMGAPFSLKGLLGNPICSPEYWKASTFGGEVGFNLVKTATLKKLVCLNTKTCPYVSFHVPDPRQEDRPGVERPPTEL
Procedure: as §1, §2

human recombinant COX-2 = biological target: T3, human recombinant COX-2 (Homo sapiens, UniProt P35354); assay: In vitro COX-2 inhibition assay (colorimetric COX inhibitor screening kit, Cayman); type: biochemical; settings: for SI (COX-1/ COX-2): IC50 (COX-1)/IC50 (COX-2); for IC50: mean of three determinations
T3 construct: purchased Cayman Chemicals Inc. 560131
T3 sequence (P35354 18-604): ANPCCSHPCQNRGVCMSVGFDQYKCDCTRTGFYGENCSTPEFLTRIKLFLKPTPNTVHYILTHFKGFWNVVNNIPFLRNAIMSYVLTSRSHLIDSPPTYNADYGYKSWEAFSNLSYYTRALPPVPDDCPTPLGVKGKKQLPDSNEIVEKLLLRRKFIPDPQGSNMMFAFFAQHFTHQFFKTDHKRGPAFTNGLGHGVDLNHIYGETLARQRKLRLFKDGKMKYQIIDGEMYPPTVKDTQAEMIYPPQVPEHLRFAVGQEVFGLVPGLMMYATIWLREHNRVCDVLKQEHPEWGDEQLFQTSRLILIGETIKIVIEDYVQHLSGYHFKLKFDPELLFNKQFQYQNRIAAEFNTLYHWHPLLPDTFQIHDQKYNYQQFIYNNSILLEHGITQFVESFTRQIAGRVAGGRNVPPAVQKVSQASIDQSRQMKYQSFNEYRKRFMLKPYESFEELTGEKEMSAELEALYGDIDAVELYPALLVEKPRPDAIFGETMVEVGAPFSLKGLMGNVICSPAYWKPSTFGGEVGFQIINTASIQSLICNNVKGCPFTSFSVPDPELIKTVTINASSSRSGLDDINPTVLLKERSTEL
Procedure: as §1, §2

[1] = tested on: formalin-induced rat paw oedema; assay: Formalin-induced paw oedema test (acute inflammation model); type: in vivo, Wistar rats; settings: oral 5 mg/kg once daily for seven days; oedema 4 h after formalin; vs diclofenac sodium and celecoxib 5 mg/kg
Procedure: A freshly prepared 5% formalin solution (prepared from 37% formaldehyde and saline (Merck, Germany)) was used as a phlogistic agent. Test and reference compounds (5 mg/kg body weight) were dissolved in DMSO and given orally with gastric gavage once per day for seven consecutive days, whereas DMSO was administered to the control group. On the 8th day, the initial paw volume was determined by a Vernier calliper. Then, a subcutaneous injection of 40 μl formalin was introduced into the right hind paw of all groups under light ether anaesthesia. The paw volume was measured 4 h after the formalin injection and the oedema volume was calculated by the difference in paw volume before and 4 h after the formalin injection. The percentage inhibition of oedema (or % protection against inflammation) was calculated for each compound as previously reported[34]^,[35].

rat stomach = assay: Gastric ulcerogenic activity and histopathological examination; settings: stomach removed on 8th day of administration, 5 mg/kg oral
[2] = tested on: cotton pellet-induced granuloma; assay: Cotton pellet-induced granuloma assay (chronic inflammation model); settings: oral 5 mg/kg daily, pellets excised on 8th day, vs diclofenac sodium and celecoxib

IC50 (15-LOX) | 15-LOX inhibition, times the activity of quercetin (15-LOX; relative to quercetin) | IC50 (ovine COX-1) | SI (COX-1/ COX-2) (human recombinant COX-2) | IC50 (human recombinant COX-2) | Structure (SMILES) | Inhibition of formalin-induced rat paw oedema (in words) [1] | Gross observation of isolated rat stomachs (rat stomach; 5 mg/kg) | Inhibition of cotton pellet granuloma weight (in words) ([2]; 5 mg/kg) | 15-LOX inhibitory activity as % of the activity of quercetin (15-LOX; relative to quercetin) | Inhibition of cotton pellet granuloma weight (in words) [2] | Gross observation of isolated rat stomachs (rat stomach) | Histopathological examination of stomach gastric layers (rat stomach; H&E, 5 mg/kg)
1.96 µM | 1.7 times | 6.56 µM | 59 | 0.11 µM | Cc1nn(-c2ccccc2)c(Cl)c1/C=C1\SC(N2CCCCC2)=NC1=O [Compound 1, (Z)-5-((5-chloro-3-methyl-1-phenyl-1H-pyrazol-4-yl)methylene)-2-(piperidin-1-yl)thiazol-4(5H)-one] |  |  |  |  |  |  | 
2.54 µM |  | 7.86 µM | 41 | 0.19 µM | O=C1N=C(N2CCCCC2)S/C1=C\c1cn(-c2ccccc2)nc1-c1ccccc1 [Compound 3, (Z)-5-((1,3-diphenyl-1H-pyrazol-4-yl)methylene)-2-(piperidin-1-yl)thiazol-4(5H)-one] |  |  |  |  |  |  | 
4.23 µM |  | 9.23 µM | 27 | 0.34 µM | Cc1ccc(-c2nn(-c3ccccc3)cc2/C=C2\SC(N3CCCCC3)=NC2=O)cc1 [Compound 5, (Z)-5-((1-phenyl-3-(p-tolyl)-1H-pyrazol-4-yl)methylene)-2-(piperidin-1-yl)thiazol-4(5H)-one] |  |  |  |  |  |  | 
2.85 µM |  | 12.5 µM | 69 | 0.18 µM | Cc1ccc(-c2nn(-c3ccccc3)cc2/C=C2\SC(N3CCOCC3)=NC2=O)cc1 [Compound 6, (Z)-2-morpholino-5-((1-phenyl-3-(p-tolyl)-1H-pyrazol-4-yl)methylene)thiazol-4(5H)-one] |  |  |  |  |  |  | 
5.64 µM |  |  |  |  | Cc1ccc(Cl)c(Nc2ccccc2C(=O)O)c1Cl [Meclofenamate Na, reference compound] |  |  |  |  |  |  | 

Structure (SMILES) | IC50 (15-LOX) | 15-LOX inhibition, times the activity of quercetin (15-LOX; relative to quercetin) | IC50 (ovine COX-1) | SI (COX-1/ COX-2) (human recombinant COX-2) | IC50 (human recombinant COX-2) | Inhibition of formalin-induced rat paw oedema (in words) [1] | Gross observation of isolated rat stomachs (rat stomach; 5 mg/kg) | Inhibition of cotton pellet granuloma weight (in words) ([2]; 5 mg/kg) | 15-LOX inhibitory activity as % of the activity of quercetin (15-LOX; relative to quercetin) | Inhibition of cotton pellet granuloma weight (in words) [2] | Gross observation of isolated rat stomachs (rat stomach) | Histopathological examination of stomach gastric layers (rat stomach; H&E, 5 mg/kg)
Cc1nn(-c2ccccc2)c(Cl)c1/C=C1\SC(N2CCOCC2)=NC1=O [Compound 2, (Z)-5-((5-chloro-3-methyl-1-phenyl-1H-pyrazol-4-yl)methylene)-2-morpholinothiazol-4(5H)-one] | 2.42 µM |  | 8.14 µM | 90 | 0.09 µM | as effective as either diclofenac or celecoxib | normal texture | superior anti-inflammatory activity, when compared to diclofenac and celecoxib; also recorded: increased inhibition of granuloma weight in comparison to both celecoxib and diclofenac |  |  |  | 
O=C1N=C(N2CCCCC2)S/C1=C\c1cn(-c2ccccc2)nc1-c1ccc(Br)cc1 [Compound 9, (Z)-5-((3-(4-bromophenyl)-1-phenyl-1H-pyrazol-4-yl)methylene)-2-(piperidin-1-yl)thiazol-4(5H)-one] | 5.64 µM |  | 14 µM | 107 | 0.13 µM | as effective as either diclofenac or celecoxib |  |  | 59% | only superior to celecoxib |  | 
O=C1N=C(N2CCOCC2)S/C1=C\c1cn(-c2ccccc2)nc1-c1ccc(Br)cc1 [Compound 10, (Z)-5-((3-(4-bromophenyl)-1-phenyl-1H-pyrazol-4-yl)methylene)-2-morpholinothiazol-4(5H)-one] | 4.52 µM |  | 11.3 µM | 103 | 0.11 µM | as effective as either diclofenac or celecoxib |  |  | 74% | only superior to celecoxib | variable levels of hyperaemia without gross ulceration | both edoema and inflammatory changes in stomach mucosal surface
